Laboratory results as given in the OligoGym collection.
HELM strings list units from the 5' end as sugar, base in round brackets, then linkage (d deoxyribose, r ribose, m 2'-O-methyl, p phosphodiester). Strings are as the collection lists them; they lack the last nucleoside at the 3' end of the tested compound. [moe] = 2'-O-(2-methoxyethyl) (MOE); [sp] = phosphorothioate linkage; [m5C] = 5-methylcytosine

Molecular target: LRRK2
Experiment: mouse, dose not given
Details: ASO

Substance | 3 h FOB score [score 0-7]
RNA1{[moe](G)[sp].[moe](T)p.[moe](G)[sp].[moe]([m5C])[sp].[moe](A)[sp].d(A)[sp].d(G)[sp].d(T)[sp].d([m5C])[sp].d([m5C])[sp].d(A)[sp].d(A)[sp].d(A)[sp].d(T)[sp].d(G)[sp].[moe](T)[sp].[moe](G)p.[moe](T)[sp].[moe]([m5C])}$$$$ (last 3' nucleoside missing) | 4
RNA1{[moe](A)[sp].[moe](T)p.[moe](T)[sp].[moe]([m5C])[sp].[moe](G)[sp].d(G)[sp].d(T)[sp].d(T)[sp].d(A)[sp].d(T)[sp].d(A)[sp].d(A)[sp].d(G)[sp].d(G)[sp].d([m5C])[sp].[moe](A)[sp].[moe]([m5C])p.[moe](A)[sp].[moe](G)}$$$$ (last 3' nucleoside missing) | 5
RNA1{[moe](T)[sp].[moe](T)p.[moe](G)[sp].[moe]([m5C])[sp].[moe](T)[sp].d(G)[sp].d([m5C])[sp].d(T)[sp].d([m5C])[sp].d(A)[sp].d(T)[sp].d(A)[sp].d(T)[sp].d([m5C])[sp].d(T)[sp].[moe](A)[sp].[moe](A)p.[moe](A)[sp].[moe](G)}$$$$ (last 3' nucleoside missing) | 3
RNA1{[moe](G)[sp].[moe](T)p.[moe](G)p.[moe]([m5C])p.[moe](A)[sp].d(A)[sp].d(G)[sp].d(T)[sp].d([m5C])[sp].d([m5C])[sp].d(A)[sp].d(A)[sp].d(A)[sp].d(T)[sp].d(G)[sp].[moe](T)p.[moe](G)p.[moe](T)[sp].[moe]([m5C])}$$$$ (last 3' nucleoside missing) | 2
RNA1{[moe]([m5C])[sp].[moe](A)p.[moe](A)[sp].[moe](G)[sp].[moe](T)[sp].d([m5C])[sp].d([m5C])[sp].d(A)[sp].d(A)[sp].d(A)[sp].d(T)[sp].d(G)[sp].d(T)[sp].d(G)[sp].d(T)[sp].[moe]([m5C])[sp].[moe](A)p.[moe](A)[sp].[moe](A)}$$$$ (last 3' nucleoside missing) | 7
